In experiment [1] the target is T1, PDE4D2 (Homo sapiens, UniProt Q08499).
T1 construct: purchased BPS bioscience
Kind of experiment: In vitro PDE4D2 enzyme inhibitory activity (AMP-Glo), reported as PDE4D2/PDE4B2 selectivity. Particulars: Ratio of IC50 value of PDE4D2 enzyme inhibition/IC50 value of PDE4B2 enzyme inhibition. The format is biochemical. How it is done:
Assay 1: In vitro evaluation of inhibitory activities of the compounds against PDE4B2 and PDE4D2 enzymes 1. Assay materials and instruments:
2. Assay procedure: • 2.1 Compound preparation and treatment • 2.1.1 Preparing stock solutions of compounds in DMSO: Compound powders were dissolved in 100% DMSO to produce 10 mM stock solutions, and oscillated in a shaker until the compounds were completely dissolved. • 2.1.2 Storing stock solutions of compounds in DMSO: Stock solutions of compounds in DMSO were stored in a desiccator at room temperature. • 2.1.3 Preparing working stock solutions: a) A solution of Roflumilast (reference compound) in DMSO was diluted to 60 µM, and then serially diluted 4-fold into 10 concentration gradients. B) The solutions of the test compounds in DMSO were diluted to 200 µM, and then serially diluted 3-fold. C) A 200X positive control (60 µM Roflumilast) and a 200X vehicle control (100% DMSO) were prepared. D) The assay plate was centrifuged at 1000 rpm for 1 minute. • 2.2 Compound testing • (1) 20 nL of compound dilution solutions were transferred with Echo 550 into each well of the assay plate. • (2) The assay plate was sealed and centrifuged at 1000 rpm for 1 minute. • (3) 2X PDE4B2/PDE4D2 was prepared in an ice-cold PDE assay buffer. • (4) 2 µL of 2X PDE4B2/PDE4D2 was added to each well of the assay plate prepared in step 2. • (5) The assay plate was sealed and allowed to equilibrate at room temperature for 10 minutes. • (6) 2X Cyclic-3',5'-AMP was prepared in a PDE assay buffer. • 7) 2µL of 2X Cyclic-3',S'-AMP (prepared in step 6) was added to each well of the assay plate (prepared in step 5) to initiate the reaction. The plate was incubated at room temperature for 60 minutes. • 8) 4µL AMP-Glo Reagent I was added, and the plate was incubated at room temperature for 60 minutes. • 9) 8µL AMP detection reagent was added. The plate was incubated at room temperature for 60 minutes. • 10) The RLU signal was read on an Envision 2105 plate reader.

Experiment [2] has as its system LPS-induced TNF-α secretion from human PBMC. Kind of experiment: Inhibition of LPS-induced TNF-α secretion from human PBMC. Type of experiment: cell-based. Particulars: hPBMC, LPS 10 ng/mL, 24 hours. How it is done:
Assay 3: Test of the inhibition of compounds on LPS-induced TNF-α secretion from human PBMC
Frozen hPBMC cell stock solution was rapidly thawed in a 37°C water bath. The cells were transferred to complete medium (RPMI 1640+10% FBS+1% P/S). The suspension was centrifuged at 1000 rpm for 5 minutes. The supernatant was discarded, and the cells were resuspended in 1 mL complete medium (RPMI 1640 + 10% FBS + 1% P/S). After gentle pipetting to mix, the cells were counted using trypan blue staining. Cells were seeded into a 96-well cell culture plate at 5×10^4 cells/well, with 100 µL/well of complete medium. Test compounds were prepared at 4×the final concentration and added to the cells at 50 µL/well, followed by a 30-minute pre-incubation. Control wells without compound were simultaneously set up. LPS was prepared as a 4×solution to achieve a final stimulation concentration of 10 ng/mL and added to the cells at 50µL/well. Control wells without LPS were simultaneously set up. The incubation of cells was continued and 10% of supernatant was collected for detection after 24 hours. The collected supernatant was detected according to the Human TNF-α kit of R&D Company (VAL105G). The inhibitory activities of the compounds of the present invention on LPS-induced TNF-α secretion from human PBMC were determined according to the above method. […]

SMILES strings stand for the structures.

T1 sequence (Q08499 303-809 limits assumed): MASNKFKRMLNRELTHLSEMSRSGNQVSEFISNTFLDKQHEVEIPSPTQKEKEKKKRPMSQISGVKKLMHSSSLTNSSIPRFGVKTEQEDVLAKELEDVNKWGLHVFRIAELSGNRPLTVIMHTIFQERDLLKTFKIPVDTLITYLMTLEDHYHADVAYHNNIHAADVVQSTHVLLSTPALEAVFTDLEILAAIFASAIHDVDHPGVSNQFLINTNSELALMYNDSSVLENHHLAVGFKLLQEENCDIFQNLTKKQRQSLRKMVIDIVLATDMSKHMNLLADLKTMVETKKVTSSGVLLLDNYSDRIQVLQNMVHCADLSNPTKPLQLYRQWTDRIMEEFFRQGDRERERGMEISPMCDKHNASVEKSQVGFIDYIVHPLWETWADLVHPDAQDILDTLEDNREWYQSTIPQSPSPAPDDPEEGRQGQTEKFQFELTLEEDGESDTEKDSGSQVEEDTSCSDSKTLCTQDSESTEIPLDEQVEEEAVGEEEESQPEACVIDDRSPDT

As for `COC1(c2ccc(OC(F)F)cc2)CN(c2nc3c(c(NC4(CO)CCC4)n2)[S+]([O-])CC3)C1` (racemic) [Compound 105, (R/S)-2-(3-(4-(difluoromethoxy)phenyl)-3-methoxyazetidin-1-yl)-4-((1-(hydroxymethyl)cyclobutyl)amino)-6,7-dihydrothieno[3,2-d]pyrimidine 5-oxide], the PDE4D2/PDE4B2 selectivity result in experiment [1] is “B (2<B≤5)”. What is called IC50 is the concentration needed to halve the response being measured. Lower therefore signals greater potency. Consider `COC1(c2ccc(Cl)cc2)CN(c2nc3c(c(NC4(CO)CCC4)n2)[S+]([O-])CC3)C1` (racemic) [Compound 83, (R/S)-2-(3-(4-chlorophenyl)-3-methoxyazetidin-1-yl)-4-((1-(hydroxymethyl)cyclobutyl)amino)-6,7-dihydrothieno[3,2-d]pyrimidine 5-oxide], for which the PDE4D2/PDE4B2 selectivity result in experiment [1] is given as “A (5<A≤10)”. The molecule further registered an IC50 in experiment [2] of 1.35 nM.

`[O-][S+]1CCc2nc(N3Cc4ccc(OC(F)F)cc4C3)nc(NC3(CO)CCC3)c21` (racemic) [Compound 87, (R/S)-2-(5-(difluoromethoxy)isoindolin-2-yl)-4-((1-(hydroxymethyl)cyclobutyl)amino)-6,7-dihydrothieno[3,2-d]pyrimidine 5-oxide]: the PDE4D2/PDE4B2 selectivity result in experiment [1] is “B (2<B≤5)”. On the same count and under the same terms, the result for `COC1(c2ccc(N3CCCC3)cc2)CN(c2nc3c(c(NC4(CO)CCC4)n2)[S+]([O-])CC3)C1` (racemic) [Compound 107, (R/S)-4-((1-(hydroxymethyl)cyclobutyl)amino)-2-(3-methoxy-3-(4-(pyrrolidin-1-yl)phenyl)azetidin-1-yl)-6,7-dihydrothieno[3,2-d]pyrimidine 5-oxide] reads “B (2<B≤5)”. Consider `[O-][S+]1CCc2nc(N3CCC(c4ncc(Cl)cn4)CC3)nc(NC3(CO)CCC3)c21` (stereo not shown) [Control 1, reference compound], for which the PDE4D2/PDE4B2 selectivity result in experiment [1] was “C (C≤2)”. The molecule also registered an IC50 in experiment [2] of 146 nM. Take `[2H]C([2H])([2H])OC1(c2ccc(Cl)cc2)CN(c2nc3c(c(NC4(CO)CCC4)n2)[S+]([O-])CC3)C1` (racemic) [Compound 92, (R/S)-2-(3-(4-chlorophenyl)-3-(methoxy-d3)azetidin-1-yl)-4-((1-(hydroxymethyl)cyclobutyl)amino)-6,7-dihydrothieno[3,2-d]pyrimidine 5-oxide]: the PDE4D2/PDE4B2 selectivity result in experiment [1] was “A (5<A≤10)”. As for `[2H]C([2H])([2H])OC1(c2ccc(Cl)cc2)CN(c2nc3c(c(NC4CCOCC4)n2)[S+]([O-])CC3)C1` (racemic) [Compound 94, (R/S)-2-(3-(4-chlorophenyl)-3-(methoxy-d3)azetidin-1-yl)-4-((tetrahydro-2H-pyran-4-yl)amino)-6,7-dihydrothieno[3,2-d]pyrimidine 5-oxide], the PDE4D2/PDE4B2 selectivity entry in experiment [1] is reported as “B (2<B≤5)”.

With `COC1(c2ccc(Cl)cc2)CN(c2nc3c(c(NC4CCOCC4)n2)[S+]([O-])CC3)C1` (racemic) [Compound 88, (R/S)-2-(3-(4-chlorophenyl)-3-methoxyazetidin-1-yl)-4-((tetrahydro-2H-pyran-4-yl)amino)-6,7-dihydrothieno[3,2-d]pyrimidine 5-oxide], the PDE4D2/PDE4B2 selectivity result in experiment [1] was “B (2<B≤5)”.

As to `COC1(c2ccc(Cl)c(F)c2)CN(c2nc3c(c(NC4CCOCC4)n2)[S+]([O-])CC3)C1` (racemic) [Compound 86, (R/S)-2-(3-(4-chloro-3-fluorophenyl)-3-methoxyazetidin-1-yl)-4-((tetrahydro-2H-pyran-4-yl)amino)-6,7-dihydrothieno[3,2-d]pyrimidine 5-oxide], in experiment [1], the PDE4D2/PDE4B2 selectivity entry is listed as “B (2<B≤5)”. Same read-out and setting: the result for `COC1(c2ccc(OCC3CC3)cc2)CN(c2nc3c(c(NC4(CO)CCC4)n2)[S+]([O-])CC3)C1` (racemic) [Compound 106, (R/S)-2-(3-(4-(cyclopropylmethoxy)phenyl)-3-methoxyazetidin-1-yl)-4-((1-(hydroxymethyl)cyclobutyl)amino)-6,7-dihydrothieno[3,2-d]pyrimidine 5-oxide] reads “B (2<B≤5)”; that for `COc1cc(C2(O)CN(c3nc4c(c(NC5(CO)CCC5)n3)[S+]([O-])CC4)C2)ccc1Cl` (racemic) [Compound 3, (R/S)-2-(3-(4-chloro-3-methoxyphenyl)-3-hydroxyazetidin-1-yl)-4-((1-(hydroxymethyl)cyclobutyl)amino)-6,7-dihydrothieno[3,2-d]pyrimidine 5-oxide], “B (2<B≤5)”.

For the molecule `[O-][S+]1CCc2nc(N3CC=C(c4ccc(OC(F)F)cc4)C3)nc(NC3(CO)CCC3)c21` (racemic) [Compound 14, (R/S)-2-(3-(4-(difluoromethoxy)phenyl)-2,5-dihydro-1H-pyrrol-1-yl)-4-((1-(hydroxymethyl)cyclobutyl)amino)-6,7-dihydrothieno[3,2-d]pyrimidine 5-oxide], in experiment [1], the PDE4D2/PDE4B2 selectivity result was “B (2<B≤5)”. Take `COc1ccc(C2(OC)CN(c3nc4c(c(NC5CCOCC5)n3)[S+]([O-])CC4)C2)cc1` (racemic) [Compound 108, (R/S)-2-(3-methoxy-3-(4-methoxyphenyl)azetidin-1-yl)-4-((tetrahydro-2H-pyran-4-yl)amino)-6,7-dihydrothieno[3,2-d]pyrimidine 5-oxide]: the PDE4D2/PDE4B2 selectivity result in experiment [1] was “B (2<B≤5)”. `COC1(c2ccc(Cl)c(F)c2)CN(c2nc3c(c(NC4(CO)CCC4)n2)[S+]([O-])CC3)C1` (racemic) [Compound 82, (R/S)-2-(3-(4-chloro-3-fluorophenyl)-3-methoxyazetidin-1-yl)-4-((1-(hydroxymethyl)cyclobutyl)amino)-6,7-dihydrothieno[3,2-d]pyrimidine 5-oxide]: the PDE4D2/PDE4B2 selectivity entry in experiment [1] was “A (5<A≤10)”.

Source of the values: patent EP4674852A1, “PREPARATION METHOD FOR AND USE OF DIHYDROTHIENOPYRIMIDINE DERIVATIVE” (Innovstone Therapeutics Limited, priority 2023, dated 2024).
